Test results: patent US8673908B2, “Kynurenine production inhibitor” (Kyowa Hakko Kirin Co., Ltd., priority 2008, dated 2014)

Test system: kynurenine production in IFN-γ-treated KATO-III cells
Assay: Inhibitory activity on kynurenine production (Test Example 1)
Type: cell-based
Conditions: Homo sapiens, IFN-γ treatment, culture for 96 hours, read-out: IC50 value, inhibition of kynurenine production
Summary of the method: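 Read-out is absorbance at 480 nm of medium treated with trichloroacetic acid, then p-dimethylaminobenzaldehyde, to quantify kynurenine. DMSO-only wells with and without IFN-γ serve as references. Cells were KATO-III, 2,000 per well, 96 h at 37 °C/5% CO2 with compound (DMSO ≤0.1%) and IFN-γ at 31.25 ng/mL in the added suspension.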

Row | IC50 | Compound
1 | < 1000 nM | O=S(=O)(Nc1nc2ccccc2nc1OCc1ccc2ccccc2c1)c1c(Cl)cccc1Cl [Compound 27, 2,6-dichloro-N-{3-[(2-naphthyl)methoxy]quinoxalin-2-yl}-benzenesulfonamide]
2 | 1000 to 10000 nM | CC(Oc1nc2ccccc2nc1NS(=O)(=O)c1ccccc1Cl)C(C)(C)C (stereo not shown) [Compound 231, 2-chloro-N-[3-(3,3-dimethylbutan-2-yloxy)quinoxalin-2-yl]-benzenesulfonamide]
3 | 1000 to 10000 nM | O=S(=O)(Nc1nc2ccccc2nc1OCc1ccccc1)c1cccc(Cl)c1Cl [Compound 32, 2,3-dichloro-N-(3-benzyloxyquinoxalin-2-yl)benzenesulfonamide]
4 | < 1000 nM | CCOC(CCNS(=O)(=O)Nc1nc2ccccc2nc1OC(c1cccnc1)C(F)(F)F)OCC (stereo not shown) [Compound 272, N-{3-[2,2,2-trifluoro-1-(pyridin-3-yl)ethoxy]quinoxalin-2-yl}-N′-(3,3-diethoxypropyl)-sulfuric diamide]
5 | < 1000 nM | Cc1ncc(C(Oc2nc3ccccc3nc2NS(=O)(=O)c2ccccc2Cl)C(F)(F)F)n1C (stereo not shown) [Compound 115, 2-chloro-N-{3-[2,2,2-trifluoro-1-(1,2-dimethyl-1H-imidazol-5-yl)ethoxy]quinoxalin-2-yl}benzenesulfonamide]
6 | 1000 to 10000 nM | CCCS(=O)(=O)Nc1nc2ccccc2nc1OCc1cnc(C)s1 [Compound 345, N-{3-[(2-methylthiazol-5-yl)methoxy]quinoxalin-2-yl}-propane-1-sulfonamide]
7 | < 1000 nM | O=S(=O)(Nc1nc2ccccc2nc1OC(c1ccc(N2CCCC2)nc1)C(F)(F)F)c1ccccc1Cl (stereo not shown) [Compound 93, 2-chloro-N-{3-{2,2,2-trifluoro-1-[6-(pyrrolidin-1-yl)-pyridin-3-yl]ethoxy}quinoxalin-2-yl}benzenesulfonamide]
8 | < 1000 nM | Cc1ccccc1S(=O)(=O)Nc1nc2ccccc2nc1OC(c1cccnc1)C(F)(F)F (stereo not shown) [Compound 156, 2-methyl-N-{3-[2,2,2-trifluoro-1-(pyridin-3-yl)ethoxy]-quinoxalin-2-yl}benzenesulfonamide]
9 | < 1000 nM | CC(C)S(=O)(=O)Nc1nc2ccccc2nc1OC(c1cccnc1)C(F)(F)F (stereo not shown) [Compound 168, N-{3-[2,2,2-trifluoro-1-(pyridin-3-yl)ethoxy]quinoxalin-2-yl}propane-2-sulfonamide]
10 | 1000 to 10000 nM | CCCS(=O)(=O)Nc1nc2ccccc2nc1O[C@@H](c1cccnc1)C(F)(F)F [Compound 313, (S)—N-{3-[2,2,2-trifluoro-1-(pyridin-3-yl)ethoxy]-quinoxalin-2-yl}propane-1-sulfonamide]
11 | < 1000 nM | N#Cc1cccc(C(Oc2nc3ccccc3nc2NS(=O)(=O)NC2CC2)C(F)(F)F)c1 (stereo not shown) [Compound 293, N-{3-[1-(3-cyanophenyl)-2,2,2-trifluoroethoxy]quinoxalin-2-yl}-N′-cyclopropyl-sulfuric diamide]
12 | < 1000 nM | CCCNS(=O)(=O)Nc1nc2ccccc2nc1OC(C1CCOCC1)C(F)(F)F (stereo not shown) [Compound 216, N-propyl-N′-{3-[2,2,2-trifluoro-1-(tetrahydro-2H-pyran-4-yl)ethoxy]quinoxalin-2-yl}sulfuric diamide]
13 | < 1000 nM | O=S(=O)(Nc1nc2ccccc2nc1OC(c1cccnc1)C(F)(F)F)C1CC1 (stereo not shown) [Compound 150, N-{3-[2,2,2-trifluoro-1-(pyridin-3-yl)ethoxy]quinoxalin-2-yl}cyclopropanesulfonamide]
14 | < 1000 nM | O=S(=O)(Nc1nc2ccccc2nc1OCc1ccc2ccccc2c1)c1cccc(C(F)(F)F)c1 [Compound 22, 3-(trifluoromethyl)-N-{3-[(2-naphthyl)methoxy]quinoxalin-2-yl}benzenesulfonamide]
15 | < 1000 nM | CCCNS(=O)(=O)Nc1nc2ccccc2nc1OC(c1cccnc1)C(F)(F)F (stereo not shown) [Compound 194, N-propyl-N′-{3-[2,2,2-trifluoro-1-(pyridin-3-yl)ethoxy]-quinoxalin-2-yl}sulfuric diamide]
16 | < 1000 nM | CCCS(=O)(=O)Nc1nc2ccccc2nc1O[C@H](C1CCOCC1)C(F)(F)F [Compound 347, (R)—N-{3-[2,2,2-trifluoro-1-(tetrahydro-2H-pyran-4-yl)-ethoxy]quinoxalin-2-yl}propane-1-sulfonamide]
17 | < 1000 nM | Cc1nn(C)c(Cl)c1S(=O)(=O)Nc1nc2ccccc2nc1OC(c1ccc(CN(C)C)cc1)C(F)(F)F (stereo not shown) [Compound 203, 5-chloro-N-{3-[1-(4-((dimethylamino)methyl)phenyl)-2,2,2-trifluoroethoxy]quinoxalin-2-yl}-1,3-dimethyl-1H-pyrazole-4-sulfonamide]
18 | < 1000 nM | Cc1cccc2nc(OC(c3cccnc3)C(F)(F)F)c(NS(=O)(=O)c3ccccc3Cl)nc12 (stereo not shown) [Compound 265, 2-chloro-N-{8-methyl-3-[2,2,2-trifluoro-1-(pyridin-3-yl)-ethoxy]quinoxalin-2-yl}benzenesulfonamide]
19 | < 1000 nM | Cc1nn(C)c(Cl)c1S(=O)(=O)Nc1nc2ccccc2nc1OC(c1ccccc1)C(F)(F)F (stereo not shown) [Compound 184, 5-chloro-1,3-dimethyl-N-[3-(2,2,2-trifluoro-1-phenyl-ethoxy)quinoxalin-2-yl]-1H-pyrazole-4-sulfonamide]

Row | IC50 | Compound
20 | < 1000 nM | O=S(=O)(Nc1nc2ccccc2nc1OC(c1ccc(F)cc1)C(F)(F)F)c1ccccc1Cl (stereo not shown) [Compound 59, 2-chloro-N-{3-[2,2,2-trifluoro-1-(4-fluorophenyl)ethoxy]-quinoxalin-2-yl}benzenesulfonamide]
21 | 1000 to 10000 nM | Cc1ccc(S(=O)(=O)Nc2nc3ccccc3nc2OCc2ccc3ccccc3c2)cc1 [Compound 13, N-{3-[(2-naphthyl)methoxy]quinoxalin-2-yl}-4-toluenesulfonamide]
22 | < 1000 nM | CCCNS(=O)(=O)Nc1nc2ccccc2nc1OC(c1cccc(C#N)c1)C(F)(F)F (stereo not shown) [Compound 291, N-{3-[1-(3-cyanophenyl)-2,2,2-trifluoroethoxy]quinoxalin-2-yl}-N′-propyl-sulfuric diamide]
23 | < 1000 nM | CCCNS(=O)(=O)Nc1nc2ccccc2nc1OC(c1cnc(C)s1)C(F)(F)F (stereo not shown) [Compound 323, N-propyl-N′-{3-[2,2,2-trifluoro-1-(2-methylthiazol-5-yl)-ethoxy]quinoxalin-2-yl}sulfuric diamide]
24 | 1000 to 10000 nM | O=S(=O)(Nc1nc2ccncc2nc1OC(c1cccnc1)C(F)(F)F)c1ccccc1Cl (stereo not shown) [Compound 362, 2-chloro-N-{2-[2,2,2-trifluoro-1-(pyridin-3-yl)ethoxy]-pyrido[3,4-b]pyrazin-2-yl}benzenesulfonamide]
25 | < 1000 nM | CCCS(=O)(=O)Nc1nc2ccccc2nc1O[C@H](c1cccc(C#N)c1)C(F)(F)F [Compound 349, (R)—N-{3-[2,2,2-trifluoro-1-(3-cyanophenyl)ethoxy]-quinoxalin-2-yl}propane-1-sulfonamide]
26 | < 1000 nM | O=S(=O)(Nc1nc2ccccc2nc1OC(c1cncs1)C(F)(F)F)c1cccc(Cl)c1Cl (stereo not shown) [Compound 98, 2,3-dichloro-N-{3-[2,2,2-trifluoro-1-(thiazol-5-yl)ethoxy]-quinoxalin-2-yl}benzenesulfonamide]
27 | < 1000 nM | CCCS(=O)(=O)Nc1nc2ccccc2nc1OC(c1cncc(F)c1)C(F)(F)F (stereo not shown) [Compound 332, N-{3-[2,2,2-trifluoro-1-(5-fluoropyridin-3-yl)ethoxy]-quinoxalin-2-yl}propane-1-sulfonamide]
28 | < 1000 nM | Cc1noc(C)c1S(=O)(=O)Nc1nc2ccccc2nc1OC(c1cccnc1)C(F)(F)F (stereo not shown) [Compound 155, 3,5-dimethyl-N-{3-[2,2,2-trifluoro-1-(pyridin-3-yl)ethoxy]-quinoxalin-2-yl}isoxazole-4-sulfonamide]
29 | < 1000 nM | O=S(=O)(Nc1nc2cc(Cl)c(Cl)cc2nc1OC(c1cccnc1)C(F)(F)F)c1ccccc1Cl (stereo not shown) [Compound 264, 2-chloro-N-{6,7-dichloro-3-[2,2,2-trifluoro-1-(pyridin-3-yl)ethoxy]quinoxalin-2-yl}benzenesulfonamide]
30 | 1000 to 10000 nM | Cn1cncc1C(Oc1nc2ccccc2nc1NS(=O)(=O)NC1CC1)C(F)(F)F (stereo not shown) [Compound 287, N-{3-[2,2,2-trifluoro-1-(1-methyl-1H-imidazol-5-yl)ethoxy]-quinoxalin-2-yl}-N′-cyclopropyl-sulfuric diamide]
31 | < 1000 nM | O=S(=O)(Nc1nc2ccccc2nc1OC(c1cccnc1)C(F)(F)F)C1CCCC1 (stereo not shown) [Compound 169, N-{3-[2,2,2-trifluoro-1-(pyridin-3-yl)ethoxy]quinoxalin-2-yl}cyclopentanesulfonamide]
32 | 1000 to 10000 nM | CCCS(=O)(=O)Nc1nc2ccccc2nc1O[C@@H](C1CCOCC1)C(F)(F)F [Compound 346, (S)—N-{3-[2,2,2-trifluoro-1-(tetrahydro-2H-pyran-4-yl)-ethoxy]quinoxalin-2-yl}propane-1-sulfonamide]
33 | < 1000 nM | CCCS(=O)(=O)Nc1nc2ccccc2nc1OC(C(F)(F)F)C1(F)CCOCC1 (stereo not shown) [Compound 350, N-{3-[2,2,2-trifluoro-1-(4-fluorotetrahydro-2H-pyran-4-yl)-ethoxy]quinoxalin-2-yl}propane-1-sulfonamide]
34 | < 1000 nM | O=S(=O)(Nc1nc2ccccc2nc1OC(c1ccc(Cl)cc1)C(F)(F)F)c1ccccc1Cl (stereo not shown) [Compound 53, 2-chloro-N-{3-[2,2,2-trifluoro-1-(4-chlorophenyl)ethoxy]-quinoxalin-2-yl}benzenesulfonamide]
35 | < 1000 nM | Cc1nn(C)c(Cl)c1S(=O)(=O)Nc1nc2ccccc2nc1OC(c1cncs1)C(F)(F)F (stereo not shown) [Compound 186, 5-chloro-1,3-dimethyl-N-{3-[2,2,2-trifluoro-1-(thiazol-5-yl)ethoxy]quinoxalin-2-yl}-1H-pyrazole-4-sulfonamide]
36 | < 1000 nM | O=S(=O)(Nc1nc2ccccc2nc1OC(c1ccsc1)C(F)(F)F)c1cccc(Cl)c1Cl (stereo not shown) [Compound 101, 2,3-dichloro-N-{3-[2,2,2-trifluoro-1-(thiophen-3-yl)-ethoxy]quinoxalin-2-yl}benzenesulfonamide]
37 | < 1000 nM | COc1ccccc1S(=O)(=O)Nc1nc2ccccc2nc1OC(c1cccnc1)C(F)(F)F (stereo not shown) [Compound 158, 2-methoxy-N-{3-[2,2,2-trifluoro-1-(pyridin-3-yl)ethoxy]-quinoxalin-2-yl}benzenesulfonamide]
